These are literature values, as cited in patent publication US11439638B1, “Drug and diagnostic combination system to identify and treat single-stranded RNA viruses including coronaviruses” (priority 2021, dated 2022).

Data set [1] concerns influenza viruses, arenaviruses, bunyaviruses, and filoviruses.
For another data set, the system named is SARS-CoV-2. The conditions noted are these: mammalian cells, in vitro.

With `NC(=O)c1nc(F)c[nH]c1=O` [Favipiravir, favipiravir], in data set [1], the effectiveness against viruses result is listed as “effective”.

Turning to `NC(=O)c1nc(F)cn([C@@H]2O[C@H](COP(=O)(O)OP(=O)(O)OP(=O)(O)O)[C@@H](O)[C@H]2O)c1=O` [favipiravir-RTP], in data set [1], the effectiveness against viruses entry was “effective”. With ivermectin, the “inhibition of yellow fever virus” value in the data set with yellow fever virus was “inhibit”. Besides, the “replication of SARS-CoV-2” value in the data set on SARS-CoV-2 is given as “slow replication”. Moreover, the “inhibition of dengue virus” value with dengue virus is “inhibit”.
